Measured values taken from PubChem BioAssay (NCI).
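Method: 48-hour compound exposure of cells in 96-well plates, five concentrations, linear interpolation of endpoints. Abbreviation: GI50, concentration required for 50% inhibition of growth. TGI is the concentration that stops growth completely.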

Columns and labels:
Experiment in all cases: growth of human tumour cells (NCI), 48 h
[1] = tested on: K-562 leukemia
[2] = tested on: SNB-19 CNS
[3] = tested on: U251 CNS
[4] = tested on: PC-3 prostate
[5] = tested on: CCRF-CEM leukemia
[6] = tested on: MCF7 breast
[7] = tested on: HL-60(TB) leukemia
[8] = tested on: SR leukemia
[9] = tested on: SN12C renal
[10] = tested on: OVCAR-8 ovarian
[11] = tested on: BT-549 breast
[12] = tested on: ACHN renal
[13] = tested on: IGROV1 ovarian
[14] = tested on: SNB-75 CNS
[15] = tested on: RXF 393 renal
[16] = tested on: RPMI-8226 leukemia
[17] = tested on: SF-268 CNS
[18] = tested on: HOP-62 NSCLC
[19] = tested on: LOX IMVI melanoma
[20] = tested on: HS 578T breast
[21] = tested on: MOLT-4 leukemia
[22] = tested on: HOP-92 NSCLC
[23] = tested on: TK-10 renal
[24] = tested on: 786-0 renal
[25] = tested on: NCI-H460 lung
[26] = tested on: A549 NSCLC
[27] = tested on: CAKI-1 renal
[28] = tested on: EKVX NSCLC
[29] = tested on: OVCAR-4 ovarian
[30] = tested on: SF-539 CNS
[31] = tested on: HT29 colon
[32] = tested on: HCT-116 colon
[33] = tested on: SW-620 colon
[34] = tested on: SK-MEL-2 melanoma
[35] = tested on: UO-31 renal
[36] = tested on: NCI-H522 lung
[37] = tested on: A498 renal
[38] = tested on: UACC-62 melanoma
[39] = tested on: SK-MEL-28 melanoma
[40] = tested on: DU-145 prostate
[41] = tested on: COLO 205 colon
[42] = tested on: MDA-MB-435
[43] = tested on: NCI-H226 lung
[44] = tested on: HCC-2998 colon
[45] = tested on: MDA-MB-231 breast
[46] = tested on: UACC-257 melanoma
[47] = tested on: NCI-H23 lung
[48] = tested on: HCT-15 colon
[49] = tested on: SK-OV-3 ovarian
[50] = tested on: SF-295 CNS
[51] = tested on: KM12 colon
[52] = tested on: MALME-3M melanoma
[53] = tested on: T-47D breast
[54] = tested on: NCI/ADR-RES ovarian
[55] = tested on: M14 melanoma
[56] = tested on: SK-MEL-5 melanoma
[57] = tested on: OVCAR-5 ovarian

Work on `CNC(=O)c1c(NC(=O)c2cccc(C(F)(F)F)c2F)sc2c1CCC(=O)C2` yielded a GI50 [1] of 174 nM, a TGI [1] of over 100000 nM and a GI50 [2] of 361 nM. The TGI [2] was over 100000 nM, the GI50 [3] was 259 nM and the TGI [3] was over 100000 nM. It also gave a GI50 [4] of 110 nM, a TGI [4] of over 100000 nM and a GI50 [5] of 109 nM. The TGI [5] was over 100000 nM, the GI50 [6] was 283 nM and the TGI [6] was over 100000 nM. It also gave a GI50 [7] of 275 nM, a TGI [7] of over 100000 nM and a GI50 [8] of 112 nM. The TGI [8] was over 100000 nM, the GI50 [9] was 305 nM and the TGI [9] was over 100000 nM. For the same compound, the GI50 [10] was 349 nM, the TGI [10] was over 100000 nM and the GI50 [11] was 406 nM. For the same compound, the TGI [11] was over 100000 nM, the GI50 [12] was 301 nM and the TGI [12] was 1030 nM. It also gave a GI50 [13] of 483 nM, a TGI [13] of over 100000 nM and a GI50 [14] of 163 nM. It also gave a TGI [14] of 794 nM, a GI50 [15] of 378 nM and a TGI [15] of over 100000 nM. The GI50 [16] was 141 nM, the TGI [16] was 676 nM and the GI50 [17] was 357 nM. For the same compound, the TGI [17] was over 100000 nM, the GI50 [18] was 777 nM and the TGI [18] was over 100000 nM. For the same compound, the GI50 [19] was 466 nM, the TGI [19] was over 100000 nM and the GI50 [20] was 379 nM. For the same compound, the TGI [20] was over 100000 nM, the GI50 [21] was 341 nM and the TGI [21] was over 100000 nM. It also gave a GI50 [22] of 208 nM and a TGI [22] of 636 nM.
`O=C(CCC(=O)N1CCOCC1)OCCCCCCSc1ccc([N+](=O)[O-])c2nonc12` was tested, and the GI50 [23] was 4100 nM, the TGI [23] was 13300 nM and the GI50 [1] was 259 nM. The TGI [1] was over 100000 nM, the GI50 [24] was 1400 nM and the TGI [24] was 4150 nM. It also gave a GI50 [2] of 1610 nM, a TGI [2] of 4710 nM and a GI50 [3] of 640 nM. For the same compound, the TGI [3] was 2700 nM, the GI50 [25] was 1700 nM and the TGI [25] was 3820 nM. The GI50 [26] was 2900 nM, the TGI [26] was 12000 nM and the GI50 [27] was 1520 nM. For the same compound, the TGI [27] was 3950 nM, the GI50 [4] was 1600 nM and the TGI [4] was 4190 nM. The GI50 [28] was 1550 nM, the TGI [28] was 3260 nM and the GI50 [29] was 1820 nM. For the same compound, the TGI [29] was 3800 nM, the GI50 [30] was 666 nM and the TGI [30] was 1990 nM. It also gave a GI50 [5] of 284 nM, a TGI [5] of 3850 nM and a GI50 [31] of 1010 nM. It also gave a TGI [31] of 4270 nM, a GI50 [32] of 410 nM and a TGI [32] of 1670 nM. It also gave a GI50 [33] of 479 nM, a TGI [33] of 2280 nM and a GI50 [34] of 2480 nM. The TGI [34] was 6680 nM, the GI50 [6] was 334 nM and the TGI [6] was 1920 nM. The GI50 [7] was 313 nM, the TGI [7] was 1620 nM and the GI50 [35] was 418 nM. For the same compound, the TGI [35] was 2260 nM, the GI50 [36] was 853 nM and the TGI [36] was 3930 nM. The GI50 [8] was 239 nM, the TGI [8] was 2160 nM and the GI50 [37] was 1850 nM. It also gave a TGI [37] of 4260 nM, a GI50 [38] of 1010 nM and a TGI [38] of 2360 nM. For the same compound, the GI50 [39] was 1620 nM, the TGI [39] was 3110 nM and the GI50 [40] was 1400 nM. The TGI [40] was 2710 nM, the GI50 [9] was 1010 nM and the TGI [9] was 2300 nM. The GI50 [10] was 827 nM, the TGI [10] was 9250 nM and the GI50 [11] was 939 nM. It also gave a TGI [11] of 2170 nM, a GI50 [12] of 472 nM and a TGI [12] of 1680 nM. It also gave a GI50 [41] of 1890 nM, a TGI [41] of 4590 nM and a GI50 [13] of 1010 nM. For the same compound, the TGI [13] was 2240 nM, the GI50 [42] was 1160 nM and the TGI [42] was 2500 nM. For the same compound, the GI50 [43] was 1440 nM, the TGI [43] was 3810 nM and the GI50 [44] was 1680 nM. It also gave a TGI [44] of 3160 nM, a GI50 [14] of 490 nM and a TGI [14] of 17000 nM. It also gave a GI50 [15] of 574 nM, a TGI [15] of 1960 nM and a GI50 [16] of 401 nM. It also gave a TGI [16] of 3350 nM, a GI50 [45] of 1390 nM and a TGI [45] of 3080 nM. The GI50 [46] was 1630 nM, the TGI [46] was 3660 nM and the GI50 [47] was 1390 nM. For the same compound, the TGI [47] was 3000 nM, the GI50 [48] was 267 nM and the TGI [48] was 1120 nM. It also gave a GI50 [49] of 3850 nM, a TGI [49] of 16900 nM and a GI50 [50] of 2460 nM. For the same compound, the TGI [50] was 7210 nM, the GI50 [51] was 2700 nM and the TGI [51] was 7770 nM. It also gave a GI50 [17] of 1650 nM, a TGI [17] of 5250 nM and a GI50 [18] of 1740 nM. For the same compound, the TGI [18] was 4450 nM, the GI50 [52] was 1150 nM and the TGI [52] was 2510 nM. It also gave a GI50 [53] of 2030 nM, a TGI [53] of 5110 nM and a GI50 [54] of 759 nM. It also gave a TGI [54] of 4440 nM, a GI50 [55] of 1320 nM and a TGI [55] of 2890 nM. It also gave a GI50 [56] of 1700 nM, a TGI [56] of 3290 nM and a GI50 [20] of 1690 nM. The TGI [20] was 5990 nM, the GI50 [57] was 1580 nM and the TGI [57] was 3250 nM. The GI50 [21] was 410 nM, the TGI [21] was 3490 nM and the GI50 [22] was 1240 nM. For the same compound, the TGI [22] was 2830 nM.
